From US20090088439A1, “Diazinane Compounds” (priority 2007, published 2009) come the findings set out here.

For the first experiment, the target named is T1, GABAB(1A,2) receptor heterodimer (Homo sapiens, UniProt O75899+Q9UBS5).
T1 construct: expressed in transfected cells; membrane preparation
T1 sequence (Q9UBS5 15-961 limits assumed): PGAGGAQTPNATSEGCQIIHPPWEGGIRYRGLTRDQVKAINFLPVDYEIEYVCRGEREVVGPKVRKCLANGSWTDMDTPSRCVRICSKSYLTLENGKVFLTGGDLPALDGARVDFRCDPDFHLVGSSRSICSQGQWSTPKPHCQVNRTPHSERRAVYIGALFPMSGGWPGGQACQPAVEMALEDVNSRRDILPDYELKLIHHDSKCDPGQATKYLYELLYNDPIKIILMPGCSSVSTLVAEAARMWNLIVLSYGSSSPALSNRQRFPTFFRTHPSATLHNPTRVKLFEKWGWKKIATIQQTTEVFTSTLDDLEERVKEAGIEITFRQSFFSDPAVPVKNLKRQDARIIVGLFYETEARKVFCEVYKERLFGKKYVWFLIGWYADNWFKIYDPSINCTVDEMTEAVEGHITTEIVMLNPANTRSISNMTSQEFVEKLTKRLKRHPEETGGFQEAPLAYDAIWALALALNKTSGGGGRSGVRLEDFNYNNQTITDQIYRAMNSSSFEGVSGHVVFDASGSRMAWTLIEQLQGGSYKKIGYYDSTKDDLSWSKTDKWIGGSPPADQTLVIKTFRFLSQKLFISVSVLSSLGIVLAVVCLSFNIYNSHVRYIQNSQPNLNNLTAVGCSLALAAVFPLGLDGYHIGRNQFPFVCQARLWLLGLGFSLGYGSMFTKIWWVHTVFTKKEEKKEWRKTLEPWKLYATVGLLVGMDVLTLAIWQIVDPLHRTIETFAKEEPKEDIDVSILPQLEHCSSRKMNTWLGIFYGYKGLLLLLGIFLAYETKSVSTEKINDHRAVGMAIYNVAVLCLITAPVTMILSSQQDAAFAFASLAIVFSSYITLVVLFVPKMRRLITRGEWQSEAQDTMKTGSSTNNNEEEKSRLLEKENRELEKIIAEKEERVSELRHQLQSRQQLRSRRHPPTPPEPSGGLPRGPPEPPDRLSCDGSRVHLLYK
T1 sequence (O75899 42-941): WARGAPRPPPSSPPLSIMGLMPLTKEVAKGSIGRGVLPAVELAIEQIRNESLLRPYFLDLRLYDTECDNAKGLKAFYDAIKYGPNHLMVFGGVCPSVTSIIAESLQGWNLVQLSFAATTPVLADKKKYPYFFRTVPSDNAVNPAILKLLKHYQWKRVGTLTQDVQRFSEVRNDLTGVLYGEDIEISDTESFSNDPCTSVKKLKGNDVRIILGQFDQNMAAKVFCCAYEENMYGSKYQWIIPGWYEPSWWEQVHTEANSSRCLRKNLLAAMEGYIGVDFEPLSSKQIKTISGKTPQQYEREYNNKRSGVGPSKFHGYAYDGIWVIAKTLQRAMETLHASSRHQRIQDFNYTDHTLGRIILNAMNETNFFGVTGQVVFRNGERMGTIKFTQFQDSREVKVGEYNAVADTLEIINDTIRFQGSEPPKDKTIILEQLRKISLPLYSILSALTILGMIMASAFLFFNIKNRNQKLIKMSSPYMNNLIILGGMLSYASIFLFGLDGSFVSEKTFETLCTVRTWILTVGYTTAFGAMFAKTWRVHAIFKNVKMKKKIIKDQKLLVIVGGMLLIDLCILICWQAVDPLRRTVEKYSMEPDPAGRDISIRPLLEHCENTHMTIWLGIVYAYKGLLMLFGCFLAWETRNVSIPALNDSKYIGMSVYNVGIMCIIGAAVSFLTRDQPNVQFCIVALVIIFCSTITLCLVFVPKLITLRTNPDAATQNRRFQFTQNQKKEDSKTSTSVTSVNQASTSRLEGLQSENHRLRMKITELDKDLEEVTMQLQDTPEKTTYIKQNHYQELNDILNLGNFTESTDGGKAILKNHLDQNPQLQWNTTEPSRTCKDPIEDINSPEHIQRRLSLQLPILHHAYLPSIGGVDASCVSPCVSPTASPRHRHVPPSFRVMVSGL
The experiment in a line: GTPγS35 radioligand filtration-binding assay for determination of PAM potency. The note with it: membranes of CHO-K1 cells expressing GABABR1a/GABABR2; concentration required to reduce GABA's EC50 by 50%; PAM at 10, 1, 0.1 and 0.01 μM; read-out: Mean (EC50 derived) PAM EC50. Type of experiment: biochemical. From the text: The effect of GABA in an automated GTPγS^35 radioligand filtration-binding assay in CHO cells expressing the GABAB(1A,2) receptor heterodimer was studied in the presence or absence of the positive allosteric modulator test compounds. […]
(§1) The GABAB receptor is a G-protein coupled receptor. Binding of a ligand activates the receptor leading to recruitment of G-protein and a substitution of the G-protein bound GDP to GTP. The G-protein becomes active. The G-protein is inactivated by hydrolysis of GTP to GDP. G-proteins are membrane bound and therefore present in membrane preparations.
(§2) In the GTPγS^35 assay, GTP is not present but instead GTPγS^35 where one of the phosphate groups are substituted to a sulphur group which cannot be hydrolysed. Upon activation of the receptor, radiolabelled GTPγS^35 replaces the GDP. The complex cannot be inactivated and the radiolabelled complex is accumulating. At the end of the assay, the reaction mixture is filtered through a membrane-binding filter. Excess GTPγS^35 is removed by washing and the membrane bound S^35, which correlates to the degree of receptor activation, is measured with a β-Liquid Scintillation Counter.
GABABR1a and GABABR2 were cloned from human brain cDNA and subcloned into pCI-Neo (Promega) and pALTER-1 (Promega), respectively.
In order to optimise the Kozak consensus sequence of GABABR2, in situ mutagenesis was performed using the Altered Sites Mutagenesis kit according to manufacturer's instruction (Promega) with the following primer,
5′-[…]-3′. The optimised GABABR2 was then restricted from pALTER-1 with Xho I+Kpn I and subcloned into the mammalian expression vector pcDNA3.1(−)/Zeo (Invitrogen) to produce the final construct, pcDNA3.1(−)/Zeo-GABABR2.
For generation of stable cell lines, CHO-K1 cells were grown in Nut mix F-12 (Ham) media supplemented with 10% FBS, 100 U/ml Penicillin and 100 μg/ml Streptomycin at 37° C. in a humidified CO2-incubator. The cells were detached with 1 mM EDTA in PBS and 1 million cells were seeded in 100 mm petri dishes. After 24 hours the culture media was replaced with OptiMEM and incubated for 1 hour in a CO2-incubator.
For generation of a cell line expressing the GABABR1a/GABABR2 heterodimer, GABABR1a plasmid DNA (4 μg) GABABR2 plasmid DNA (4 μg) and lipofectamine (24 μl) were mixed in 5 ml OptiMEM and incubated for 45 minutes at room temperature. The cells were exposed to the transfection medium for 5 hours, which then was replaced with culture medium. The cells were cultured for an additional 10 days before selection agents (300 μg/ml hygromycin and 400 μg/ml geneticin) were added. Twenty-four days after transfection, single cell sorting into 96-well plates by flow cytometry was performed using a FACS Vantage SE (Becton Dickinson, Palo Alto, Calif.). After expansion, the GABAB receptor functional response was tested by measuring the GABAB receptor dependent release of intracellular calcium in a fluorescence imaging plate reader (FLIPR). The clone with the highest functional response was collected, expanded and then subcloned by single cell sorting. The clonal cell line with the highest peak response in the FLIPR was used in the present study.
GTPγS^35 radioligand filtration-binding assays were performed using an automated workstation at 30° C. for 1 hour in assay buffer (50 mM HEPES, 40 mM NaCl, 1 mM MgCl2×6H2O, 30 μg/mL Saponin, pH 7.4 at RT) containing 0.025 μg/μL of membrane protein (prepared from the cell line described above), 10 μM GDP and 0.55 nCi/μL GTPγS^35 in a final volume of 60 μL. The reaction was started by the addition of serially diluted GABA (final start concentration 1 mM dilution factor 3) in the presence or absence of four concentrations (final conc 10, 1, 0.1 and 0.01 μM) of PAM. The reaction was terminated and membranes collected by addition of ice-cold wash buffer (50 mM Tris-HCl, 5 mM MgCl2×6H2O, 50 mM NaCl, pH 7.4 at 4° C.) followed by rapid filtration under vacuum through a MultiScreen HTS 384 FB filter plate. […]
For `CCCn1c(=O)n(Cc2ccc(Cl)cc2)c(=O)c2nccnc21` [Example 2, 3-(4-chlorobenzyl)-1-propylpteridine-2,4(1H,3H)-dione], the EC50 (as a rule, the concentration giving half of the maximal effect) is 4300 nM.

For `O=c1c2nccnc2n(CC2CCCCC2)c(=O)n1Cc1ccc(Cl)cc1` [Example 4, 3-(4-chlorobenzyl)-1-(cyclohexylmethyl)pteridine-2,4(1H,3H)-dione], the 50% effective concentration (EC50) worked out at 600 nM.

`C[Si](C)(C)CCn1c(=O)n(Cc2ccc(Cl)cc2)c(=O)c2nccnc21` [Example 3, 3-(4-chlorobenzyl)-1-[2-(trimethylsilyl)ethyl]pteridine-2,4(1H,3H)-dione]: the EC50 was determined as 600 nM.

As to `O=c1c2nccnc2n(Cc2ccccc2)c(=O)n1Cc1ccc(Cl)cc1` [Example 7, 1-benzyl-3-(4-chlorobenzyl)pteridine-2,4(1H,3H)-dione], the EC50 amounted to 5100 nM.

For the molecule `O=C(c1ccccc1)c1ccc(Cn2c(=O)n(Cc3ccc(Cl)cc3)c(=O)c3nccnc32)cc1` [Example 10, 1-(4-benzoylbenzyl)-3-(4-chlorobenzyl)pteridine-2,4(1H,3H)-dione], the EC50 is 800 nM.

Regarding `O=c1c2nccnc2n(Cc2ccc(Cl)cc2)c(=O)n1Cc1ccc(Cl)cc1` [Example 8, 1,3-bis(4-chlorobenzyl)pteridine-2,4(1H,3H)-dione], the EC50 turned out to be 2400 nM.

As for `O=c1c2nccnc2n(CCc2ccccc2)c(=O)n1Cc1ccc(Cl)cc1` [Example 11, 3-(4-chlorobenzyl)-1-(2-phenylethyl)pteridine-2,4(1H,3H)-dione], the 50% effective concentration (EC50) was determined as 1300 nM.

As to `COc1ccc(Cn2c(=O)n(Cc3ccc(Cl)cc3)c(=O)c3nccnc32)cc1` [Example 9, 3-(4-chlorobenzyl)-1-(4-methoxybenzyl)pteridine-2,4(1H,3H)-dione], the EC50 was 7000 nM.

For the molecule `CC(C)(C)C(=O)Cn1c(=O)n(Cc2ccc(Cl)cc2)c(=O)c2nccnc21` [Example 5, 3-(4-chlorobenzyl)-1-(3,3-dimethyl-2-oxobutyl)pteridine-2,4(1H,3H)-dione], the EC50 was 2900 nM.

For the molecule `COc1ccc(Cn2c(=O)n(Cc3ccc(Cl)cc3)c(=O)c3nccnc32)c(OC)c1` [Example 1, 3-(4-chlorobenzyl)-1-(2,4-dimethoxybenzyl)pteridine-2,4(1H,3H)-dione], the EC50 was 6000 nM.

For another experiment, the target named is T2, GABABR1a/GABABR2 heterodimer (Homo sapiens, UniProt O75899+Q9UBS5).
T2 construct: expressed in transfected cells; membrane preparation
T2 sequence (Q9UBS5 15-961 limits assumed): as the sequence (Q9UBS5 15-961 limits assumed) above
T2 sequence (O75899 42-941): as the sequence (O75899 42-941) above
As to the kind of experiment: GTPγS35 radioligand filtration-binding assay for determination of agonist potency. Type of experiment: biochemical. The note with it: membranes of CHO K1 Flp-In cells expressing GABABR1a/GABABR2; compound alone. The protocol: The potency and efficacy of the compounds acting as agonists at the GABAB receptor was also determined in a automated GTPγS^35 radioligand filtration-binding assay.
as §1, §2
The human GABABR1a was subcloned into pIRESneo3 (Clontech) using GABABR1a construct as a template (refseqN NM001470). GABABR2 was subcloned into pCDNA5/FRT (Invitrogen) using GABABR2 construct as a template (refseqN NM005458). The Kozak sequence GCCACC was introduced before the start codon in both constructs.
For generation of stable cell lines, CHO K1 Flp-In cells (Invitrogen) were grown in DMEM/F 12 1:1 media supplemented with 10% FBS at 37° C. in a humidified CO2-incubator. The cells were detached with Accutase and 1.5 million cells were seeded into T75 flasks. After 24 h, transfection of the cells were performed with the GABABR2 construct. For generation of cell lines expressing GABABR2, GABABR2 plasmid (1 μg) and pOG44 from Invitrogen (9 μg) were mixed with 30 μl Lipofectamine 2000 in 600 μl OptiMEM for 20 minutes. The cells were exposed to transfection medium for 5 hours and was then replaced with culture medium. After 2 days 0.5 mg/ml Hygromycin were added to culture medium. The cells were cultured for an additional 10 days to establish a stable cell mix expressing GABABR2. For generation of a cell line expressing the GABABR1a/GABABR2 heterodimer, GABABR1a plasmid DNA (8 μg) and Lipofectamine (30 μl) were mixed in 600 μl OptiMEM and incubated for 20 minutes before added to CHO-Flp-In cells expressing GABABR2. After 2 days additional selection agent was added (0.8 mg/ml Geneticin). The cells were cultured for another 10 days to generate a stable mixed population expressing the GABABR1a/GABABR2 heterodimer. The cell line was analyzed by GTPγS^35 assay with GABA as agonist.
GTPγS^35 radioligand filtration-binding assays were performed using an automated workstation at 30° C. for 1 hour in assay buffer (50 mM HEPES, 40 mM NaCl, 1 mM MgCl2×6H2O, 30 μg/mL Saponin, pH 7.4 at RT) containing 0.025 μg/μL of membrane protein (prepared from the cell line described above), 10 μM GDP and 0.55 nCi/μL GTPγS^35 in a final volume of 60 μL. The reaction was started by the addition of compounds (GABA was always included as a positive control), start concentration 100 μM dilution factor 3. The reaction was terminated and membranes collected by addition of ice-cold wash buffer (50 mM Tris-HCl, 5 mM MgCl2×6H2O, 50 mM NaCl, pH 7.4 at 4° C.) followed by rapid filtration under vacuum through a MultiScreen HTS 384 FB filter plate. Repeated washing of the filters with ice-cold wash buffer washed the unbound radioligand away. The filter plates were dried for 1½-2 hours at 50° C., then 8 μL scintillation liquid was added per well followed by incubation at RT for at least 20 minutes before bound radioactivity was determined using a β-Liquid Scintillation Counter (1450 Microbeta Trilux, Wallac, Finland)
100% activation (max) is calculated as the mean value for wells containing 1 mM GABA. […]
In turn, `CCCn1c(=O)n(Cc2ccc(Cl)cc2)c(=O)c2nc(CC)c(CC)nc21` [Example 13, 3-(4-chlorobenzyl)-6,7-diethyl-1-propylpteridine-2,4(1H,3H)-dione] gave an EC50 of 800 nM.

Molecule `O=c1c2nc3c(nc2n(CC(O)C(F)(F)F)c(=O)n1Cc1ccc(Cl)cc1)CCCC3` (stereo not shown) [Example 19, 3-(4-chlorobenzyl)-1-(3,3,3-trifluoro-2-hydroxypropyl)-6,7,8,9-tetrahydrobenzo[g]pteridine-2,4(1H,3H)-dione] returned a half-maximal effective concentration (EC50) of 1300 nM.

In turn, `C=CCn1c(=O)n(Cc2ccc(Cl)cc2)c(=O)c2nc3c(nc21)CCCC3` [Example 14, 1-allyl-3-(4-chlorobenzyl)-6,7,8,9-tetrahydrobenzo[g]pteridine-2,4(1H,3H)-dione] displayed a 50% effective concentration (EC50) of 1600 nM.

The molecule `CCCn1c(=O)n(Cc2ccc(Cl)cc2)c(=O)c2nc3c(nc21)CCC3` [Example 22, 3-(4-chlorobenzyl)-1-propyl-7,8-dihydro-1H-cyclopenta[g]pteridine-2,4(3H,6H)-dione] returned a half-maximal effective concentration (EC50) of 3700 nM.

Consider `N#Cc1cccc(Cn2c(=O)n(Cc3ccc(Cl)cc3)c(=O)c3nc4c(nc32)CCCC4)c1` [Example 16, 3-{[3-(4-chlorobenzyl)-2,4-dioxo-3,4,6,7,8,9-hexahydrobenzo[g]pteridin-1(2H)-yl]methyl}benzonitrile], for which the 50% effective concentration (EC50) came out at 1000 nM.

`CCCn1c(=O)n(Cc2ccc(Cl)cc2)c(=O)c2c1nc1c([n+]2[O-])CCCC1` [Example 21, 3-(4-chlorobenzyl)-1-propyl-6,7,8,9-tetrahydrobenzo[g]pteridine-2,4(1H,3H)-dione 5-oxide] had a concentration for a half-maximal effect (EC50) of 7700 nM.

As to `CCCn1c(=O)n(Cc2ccc(Cl)cc2)c(=O)c2nc3c(nc21)C(C)CC3C` (mixture of isomers) [Example 12, 3-(4-chlorobenzyl)-6,8-dimethyl-1-propyl-7,8-dihydro-1H-cyclopenta[g]pteridine-2,4(3H,6H)-dione], a half-maximal response (EC50) required 1400 nM.

For `CC(C)(C)C(=O)Cn1c(=O)n(Cc2ccc(Cl)cc2)c(=O)c2nc3c(nc21)CCCC3` [Example 18, 3-(4-chlorobenzyl)-1-(3,3-dimethyl-2-oxobutyl)-6,7,8,9-tetrahydrobenzo[g]pteridine-2,4(1H,3H)-dione], it took 500 nM to reach a half-maximal effect (EC50).

Molecule “6-tert-butyl-3-(4-chlorobenzyl)-1-propylpteridine-2,4(1H,3H)-dione and 7-tert-butyl-3-(4-chlorobenzyl)-1-propylpteridine-2,4(1H,3H)-dione [Example 23]” displayed a half-maximal effective concentration (EC50) of 2200 nM.
